# Several values for one entry are separate records, joined by “and”; a condition that tells them apart may be missing. Equal values may be shown once.
# Biological target: Glycogen synthase kinase-3 beta (Homo sapiens, UniProt P49841)
# Experiment: TR-FRET Assay
# Experimental: (§1) The assay was performed in a white, 384 well, low volume, flat bottom plate (Grenier). […] The kinase activity was quenched with 2 μL of 250 mM EDTA. A 10 μL volume of 40 nM Strepavidin-d2, 2 nM Tb2+-pSer641 antibody in TR-FRET Detection Buffer (Invitrogen) was then added.
# Sequence of Glycogen synthase kinase-3 beta (P49841 whole entry): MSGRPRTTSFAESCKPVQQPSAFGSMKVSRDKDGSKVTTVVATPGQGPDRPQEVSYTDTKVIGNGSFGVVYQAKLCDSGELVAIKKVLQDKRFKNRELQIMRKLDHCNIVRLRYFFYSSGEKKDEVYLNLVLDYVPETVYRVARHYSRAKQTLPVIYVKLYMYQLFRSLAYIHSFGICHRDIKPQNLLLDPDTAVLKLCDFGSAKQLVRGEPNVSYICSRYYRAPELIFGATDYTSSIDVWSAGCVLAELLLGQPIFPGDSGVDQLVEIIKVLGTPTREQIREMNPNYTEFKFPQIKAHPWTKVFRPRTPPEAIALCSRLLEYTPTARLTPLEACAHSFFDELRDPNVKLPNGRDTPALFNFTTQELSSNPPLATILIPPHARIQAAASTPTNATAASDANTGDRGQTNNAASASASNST
row,IC50,Compound
1,100 to 1000 nM,"CC[C@@]1(c2cccc(-c3ccnc(C)c3)c2)C2=CN=NC2NC2=C1C(=O)N[C@]1(CCCOC1)C2 (some centres undefined) [US20250313563, Compound 948152]"
2,100 to 1000 nM,"CC[C@@]1(c2cccc(-c3cnn(Cc4ccc(C(F)(F)F)cc4)c3)c2)C2=CN=NC2NC2=C1C(=O)NC(C)(C)C2 (some centres undefined) [US20250313563, Compound 951849]"
3,100 to 1000 nM,"CC[C@@]1(c2cccc(N3CCCC3)c2)C2=C(CC(C)(C)CC2=O)NC2N=NC(C)=C21 (some centres undefined) [US20250313563, Compound 883874]"
4,100 to 1000 nM,"CC[C@]1(c2cccc(-c3ccncc3C)c2)C2=CN=NC2NC2=C1C(=O)NC1(CCC1)C2 (some centres undefined) [US20250313563, Compound 948523]"
5,> 5000 nM,"CC(C)(C)CC1N=NC2=C1[C@@](C)(c1cccc(N3C=COCC3)c1)C1=C(CC(C)(C)CC1=O)N2 (some centres undefined) [US20250313563, Compound 126399]"
6,< 100 nM and 100 to 1000 nM,"CC[C@]1(c2cccc(S(=O)(=O)C3CC3)c2)C2=CN=NC2NC2=C1C(=O)CC(C)(C)C2 (some centres undefined) [US20250313563, Compound 912171]"
7,100 to 1000 nM,"CC[C@]1(c2cccc(COC)c2)C2=CN=NC2NC2=C1C(=O)CC(C)(C)C2 (some centres undefined) [US20250313563, Compound 810360]"
8,100 to 1000 nM,"CC[C@]1(c2cccc(-c3c(F)cncc3OC)c2)C2=CN=NC2NC2=C1C(=O)CC(C)(C)[C@H]2F (some centres undefined) [US20250313563, Compound 948545]"
9,1000 to 5000 nM,"CC[C@@]1(c2cccc(-c3cn(C)nc3C)c2)C2=CN=NC2NC2=C1C(=O)N(C)C(C)(C)C2 (some centres undefined) [US20250313563, Compound 949005]"
10,100 to 1000 nM,"CC[C@]1(c2cccc(C(F)(F)F)c2)C2=CN=NC2NC2=C1C(=O)N(c1ccccc1)CC2 (some centres undefined) [US20250313563, Compound 929474]"
11,100 to 1000 nM,"CC[C@@]1(c2cccc(C(F)(F)F)c2)C2=CN=NC2NC2=C1C(=O)C[C@]1(CCNC1=O)C2 (some centres undefined) [US20250313563, Compound 950324]"
12,< 100 nM and 100 to 1000 nM,"CC[C@@]1(c2cccc(-c3cncn3C(C)C)c2)C2=CN=NC2NC2=C1C(=O)CC(C)(C)C2 (some centres undefined) [US20250313563, Compound 945725]"
13,100 to 1000 nM,"CC[C@]1(c2cccc(C(F)(F)F)c2)C2=C(N=NC2)NC2=C1C(=O)N(C)[C@@H]2C [US20250313563, Compound 913454]"
14,100 to 1000 nM,"CC1(C)CC(=O)C2=C(C1)NC1=C(CN=N1)[C@@]21COC2(CN(C(=O)C3(F)CCC3)C2)C1 [US20250313563, Compound 947736]"
15,100 to 1000 nM,"CC[C@@]1(c2cccc(-c3cnn(C)c3)c2)C2=C(CC(C)(C)NC2=O)NC2N=NC(F)=C21 (some centres undefined) [US20250313563, Compound 949011]"
16,100 to 1000 nM,"COC(=O)C1(c2ccccc2)CC2(C1)C1=C(N=NC1)NC1=C2C(=O)CC(C)(C)C1 (centres undefined) [US20250313563, Compound 942344]"
17,100 to 1000 nM,"CC[C@@]1(c2cccc(Oc3ncccn3)c2)C2=CN=NC2NC2=C1C(=O)CC(C)(C)C2 (some centres undefined) [US20250313563, Compound 947808]"
18,1000 to 5000 nM,"CC[C@]1(c2cccc(-c3ccnc(C)c3)c2)C2=CN=NC2NC2=C1C(=O)NC(C)(COC)C2 (some centres undefined) [US20250313563, Compound 948521]"
19,100 to 1000 nM,"CC[C@]1(c2cccc(-c3ccnc(O)c3)c2)C2=CN=NC2NC2=C1C(=O)CC(C)(C)C2 (some centres undefined) [US20250313563, Compound 943992]"
20,< 100 nM and 100 to 1000 nM,"CC[C@]1(c2cccc(-c3c(C)cncc3C)c2)C2=CN=NC2NC2=C1C(=O)CC(C)(C)C2 (some centres undefined) [US20250313563, Compound 947658]"
21,< 100 nM and 100 to 1000 nM,"CC[C@]1(c2cccc(S(C)(=O)=O)c2)C2=CN=NC2NC2=C1C(=O)CC(C)(C)C2 (some centres undefined) [US20250313563, Compound 826718]"

# Biological target: Glycogen synthase kinase-3 alpha (Homo sapiens, UniProt P49840)
# Experiment: TR-FRET Assay
# Experimental: as §1
# Sequence of Glycogen synthase kinase-3 alpha (P49840 whole entry): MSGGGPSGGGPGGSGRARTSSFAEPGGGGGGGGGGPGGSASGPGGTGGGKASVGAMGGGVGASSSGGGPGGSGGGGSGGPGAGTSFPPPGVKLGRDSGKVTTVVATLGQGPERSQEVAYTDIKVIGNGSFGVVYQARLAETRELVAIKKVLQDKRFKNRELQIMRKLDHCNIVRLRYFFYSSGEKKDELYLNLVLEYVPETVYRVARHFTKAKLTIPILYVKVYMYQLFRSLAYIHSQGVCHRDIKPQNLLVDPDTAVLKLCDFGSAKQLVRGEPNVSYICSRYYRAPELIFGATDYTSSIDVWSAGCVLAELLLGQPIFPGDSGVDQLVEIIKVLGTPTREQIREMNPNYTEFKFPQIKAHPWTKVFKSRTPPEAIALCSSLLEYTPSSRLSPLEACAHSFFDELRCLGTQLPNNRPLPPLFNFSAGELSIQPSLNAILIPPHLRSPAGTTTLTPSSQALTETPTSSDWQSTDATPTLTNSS
row,IC50,Compound
1,1790 nM and 13700 nM,"CC(C)(C)CC1=C2C(N=N1)NC1=C(C(=O)CC(C)(C)C1)C21COC1 (centres undefined) [US20250313563, Compound 90709]"
2,< 100 nM,"CC[C@@]1(c2cccc(-c3ccncc3C(F)(F)F)c2)C2=CN=NC2NC2=C1C(=O)CC(C)(C)C2 (some centres undefined) [US20250313563, Compound 943913]"
3,1000 to 5000 nM,"CC[C@@]1(c2cccc(-c3ccnc(C)c3)c2)C2=CN=NC2NC2=C1C(=O)N[C@]1(CCOC1)C2 (some centres undefined) [US20250313563, Compound 948148]"
4,100 to 1000 nM,"CC[C@]1(c2cccc(-c3ccncc3C)c2)C2=CN=NC2NC2=C1C(=O)NC1(CCCC1)C2 (some centres undefined) [US20250313563, Compound 948021]"
5,1000 to 5000 nM,"CC[C@]1(c2cccc(-c3cnn(C)c3F)c2)C2=CN=NC2NC2=C1C(=O)NC(C)(C)C2 (some centres undefined) [US20250313563, Compound 949395]"
6,1000 to 5000 nM,"CC[C@]1(c2cccc(-c3cnn(C4CC4(F)F)c3)c2)C2=CN=NC2NC2=C1C(=O)NC(C)(C)C2 (some centres undefined) [US20250313563, Compound 949393]"
7,< 100 nM and 100 to 1000 nM,"CC[C@@]1(c2cccc(-c3ccnc4cccnc34)c2)C2=CN=NC2NC2=C1C(=O)NC(C)(C)C2 (some centres undefined) [US20250313563, Compound 952560]"
8,1000 to 5000 nM,"CC[C@@]1(c2cccc(N3CCc4ccncc43)c2)C2=CN=NC2NC2=C1C(=O)CC(C)(C)C2 (some centres undefined) [US20250313563, Compound 912004]"
9,1000 to 5000 nM,"CC[C@@]1(c2cccc(OC(C)C)c2)C2=CN=NC2NC2=C1C(=O)CC(C)(C)C2 (some centres undefined) [US20250313563, Compound 811563]"
10,100 to 1000 nM,"CC[C@@]1(c2cccc(-c3ccncc3F)c2)C2=C(CC(C)(C)NC2=O)NC2N=NC(F)=C21 (some centres undefined) [US20250313563, Compound 949651]"
11,1000 to 5000 nM,"CC[C@]1(c2cccc(-c3cn(C)nc3C)c2)C2=CN=NC2NC2=C1C(=O)N(C)C(C)(C)C2 (some centres undefined) [US20250313563, Compound 949008]"
12,1000 to 5000 nM,"CC[C@]1(c2cccc(-c3ccn(C)n3)c2)C2=C(CC(C)(C)CC2=O)NC2N=NC(C)=C21 (some centres undefined) [US20250313563, Compound 913039]"
13,1000 to 5000 nM,"CC[C@@]1(c2cccc(-c3ccnc(OC)c3)c2)C2=CN=NC2NC2=C1C(=O)CC(C)(C)C2 (some centres undefined) [US20250313563, Compound 911989]"
14,1000 to 5000 nM,"CC[C@]1(c2cccc(-c3ccnn3C)c2)C2=CN=NC2NC2=C1C(=O)N[C@@](C)(COC)C2 (some centres undefined) [US20250313563, Compound 947907]"
15,< 100 nM,"CC[C@@]1(c2cccc(N(C)c3ncccn3)c2)C2=CN=NC2NC2=C1C(=O)CC(C)(C)C2 (some centres undefined) [US20250313563, Compound 911981]"
16,1000 to 5000 nM,"CC[C@@]1(c2cccc(C3CCC3)c2)C2=CN=NC2NC2=C1C(=O)CC(C)(C)C2 (some centres undefined) [US20250313563, Compound 949514]"
17,100 to 1000 nM,"CC(C)(C)CC1N=NC2=C1[C@](C)(c1cccc(S(C)(=O)=O)c1)C1=C(CC(C)(C)CC1=O)N2 (some centres undefined) [US20250313563, Compound 114687]"
18,100 to 1000 nM,"CC[C@]1(c2cccc(-c3ccnn3C)c2)C2=CN=NC2NC2=C1C(=O)N[C@]1(CCOC1)C2 (some centres undefined) [US20250313563, Compound 948014]"
19,100 to 1000 nM,"CC[C@]1(c2cccc(C(F)(F)F)c2)C2=CN=NC2NC2=C1C(=O)C[C@]1(CCN(C)C1=O)C2 (some centres undefined) [US20250313563, Compound 950330]"

row,IC50,Compound
1,< 100 nM,"COC(=O)C1CCC2(CC1)C1=C(N=NC1)NC1=C2C(=O)CC(C)(C)C1 (centres undefined) [US20250313563, Compound 918277]"
2,1000 to 5000 nM,"CC[C@@]1(c2cccc(-c3ccnc(C)c3)c2)C2=CN=NC2NC2=C1C(=O)CC(C)(C)[C@@H]2F (some centres undefined) [US20250313563, Compound 946102]"
3,100 to 1000 nM,"CC[C@]1(c2cccc(S(=O)(=O)C3COC3)c2)C2=CN=NC2NC2=C1C(=O)CC(C)(C)C2 (some centres undefined) [US20250313563, Compound 946003]"
4,100 to 1000 nM,"CC[C@@]1(c2cccc(N(C)c3cccnc3)c2)C2=CN=NC2NC2=C1C(=O)CC(C)(C)C2 (some centres undefined) [US20250313563, Compound 874299]"
5,1000 to 5000 nM,"CC[C@@]1(c2cccc(S(=O)(=O)CC3CC3)c2)C2=CN=NC2NC2=C1C(=O)CC(C)(C)C2 (some centres undefined) [US20250313563, Compound 917151]"
6,< 100 nM and 100 to 1000 nM,"CC[C@@]1(c2cccc(-c3ccnc(C)c3)c2)C2=C(CC(C)(C)NC2=O)NC2N=NC(C(F)F)=C21 (some centres undefined) [US20250313563, Compound 950163]"
7,100 to 1000 nM,"CC[C@@]1(c2cccc(N(C)c3cccnn3)c2)C2=CN=NC2NC2=C1C(=O)CC(C)(C)C2 (some centres undefined) [US20250313563, Compound 911976]"
8,100 to 1000 nM,"CC[C@]1(c2cccc(-c3c(F)cncc3OC)c2)C2=CN=NC2NC2=C1C(=O)NC(C)(C)C2 (some centres undefined) [US20250313563, Compound 948145]"
9,100 to 1000 nM,"CC[C@@]1(c2cccc(-c3c(C)nn(C)c3C)c2)C2=CN=NC2NC2=C1C(=O)CC(C)(C)C2 (some centres undefined) [US20250313563, Compound 911991]"
10,100 to 1000 nM,"CC[C@@]1(c2cccc(-c3ccnc(C)c3C)c2)C2=CN=NC2NC2=C1C(=O)CC(C)(C)C2 (some centres undefined) [US20250313563, Compound 943517]"
11,< 100 nM and 100 to 1000 nM,"CCC1(c2cccc(OCC(F)F)c2)C2=CN=NC2NC2=C1C(=O)CC(C)(C)C2 (centres undefined) [US20250313563, Compound 948793]"
12,1000 to 5000 nM,"CC[C@@]1(c2cccc(Cl)c2)C2=C(CC(C)(C)CC2=O)NC2N=NC(C(F)(F)F)=C21 (some centres undefined) [US20250313563, Compound 801309]"
13,1000 to 5000 nM,"CC[C@]1(c2cccc(-c3ccnn3C(C)C)c2)C2=CN=NC2NC2=C1C(=O)CC(C)(C)C2 (some centres undefined) [US20250313563, Compound 946092]"
14,100 to 1000 nM,"CC[C@@]1(c2cccc(Oc3cncnc3)c2)C2=CN=NC2NC2=C1C(=O)CC(C)(C)C2 (some centres undefined) [US20250313563, Compound 945939]"
15,1000 to 5000 nM,"CC[C@]1(c2cccc(C(F)(F)F)c2)C2=CN=NC2NC2=C1C(=O)N[C@@H](C(C)(C)C)C2 (some centres undefined) [US20250313563, Compound 945921]"
16,100 to 1000 nM,"CC[C@]1(c2cccc(-c3ccnc(C(F)(F)F)c3)c2)C2=C(CC(C)(C)CC2=O)NC2N=NC(C)=C21 (some centres undefined) [US20250313563, Compound 913049]"
17,1000 to 5000 nM,"CC[C@@]1(c2cccc(C(F)(F)F)c2)C2=CN=NC2NC2=C1C(=O)NC[C@@H]2C (some centres undefined) [US20250313563, Compound 945384]"
18,< 100 nM and 100 to 1000 nM,"Cn1ccc(S(=O)(=O)N2CCC3(CC2)C2=C(N=NC2)NC2=C3C(=O)NC(C)(C)C2)n1 [US20250313563, Compound 943961]"
19,1000 to 5000 nM,"Cc1ccc(S(C)(=O)=O)cc1[C@]1(C)C2=C(CC(C)(C)CC2=O)NC2=C1C(CC(C)(C)C)N=N2 (some centres undefined) [US20250313563, Compound 126397]"
